Measured values published in ChEMBL document CHEMBL1201862, “PubChem BioAssay data set” (2004).
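A five-concentration, 48-hour dose response in 96-well plates underlies each endpoint, interpolated linearly between surrounding concentrations. The concentration for 50% growth inhibition is given as GI50.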 The source made the active and inactive calls. No stated cut-off is given here; in the data, active = GI50 up to about 1.1 µM and inactive = higher.

Experiments:
Experiment in all cases: NCI anticancer screen, dose series, 48 h
HCC 2998 = system: HCC 2998
UO-31 = system: UO-31
NCI-H522 = system: NCI-H522
LOX IMVI = system: LOX IMVI
SK-MEL-2 = system: SK-MEL-2
OVCAR-8 = system: OVCAR-8
NCI-H23 = system: NCI-H23
RPMI-8226 = system: RPMI-8226
HL-60 = system: HL-60
EKVX = system: EKVX
Malme-3M = system: Malme-3M
A549 = system: A549
COLO 205 = system: COLO 205
SNB-75 = system: SNB-75
A498 = system: A498
ACHN = system: ACHN
OVCAR-5 = system: OVCAR-5
TK-10 = system: TK-10
SN12C = system: SN12C
MOLT-4 = system: MOLT-4

SMILES	GI50 (HCC 2998)	GI50 (UO-31)	GI50 (NCI-H522)	GI50 (LOX IMVI)	GI50 (SK-MEL-2)	GI50 (OVCAR-8)	GI50 (NCI-H23)	GI50 (RPMI-8226)	GI50 (HL-60)	GI50 (EKVX)	GI50 (Malme-3M)	GI50 (A549)	GI50 (COLO 205)	GI50 (SNB-75)	GI50 (A498)	GI50 (ACHN)	GI50 (OVCAR-5)	GI50 (TK-10)	GI50 (SN12C)	GI50 (MOLT-4)
N#C/C(=C\c1cccc(O)c1)C(N)=O	> 100 µM (inactive)	> 100 µM (inactive)	> 100 µM (inactive)	> 100 µM (inactive)	> 100 µM (inactive)	> 100 µM (inactive)	> 100 µM (inactive)	> 100 µM (inactive)	20.9 µM (inactive)	> 100 µM (inactive)	> 100 µM (inactive)	> 100 µM (inactive)	> 100 µM (inactive)	22.3 µM (inactive)	> 100 µM (inactive)	> 100 µM (inactive)	> 100 µM (inactive)	> 100 µM (inactive)	> 100 µM (inactive)	> 100 µM (inactive)
C=CC(C)CCC(C/C=C(\C)CCCC(C)C)C(=C)CCCC(C)C (stereo not given)	> 100 µM (inactive)	> 100 µM (inactive)	> 100 µM (inactive)	> 100 µM (inactive)	> 100 µM (inactive)	> 100 µM (inactive)	> 100 µM (inactive)	> 100 µM (inactive)	> 100 µM (inactive)	> 100 µM (inactive)	> 100 µM (inactive)	> 100 µM (inactive)	> 100 µM (inactive)	> 100 µM (inactive)	> 100 µM (inactive)	> 100 µM (inactive)	> 100 µM (inactive)	> 100 µM (inactive)	> 100 µM (inactive)	> 100 µM (inactive)
C/C(=N/NC(=S)Nc1ccc([N+](=O)[O-])cc1)c1cccc(/C(C)=N\NC(=S)Nc2ccc([N+](=O)[O-])cc2)n1	1.02 µM (active)	0.382 µM (active)	0.628 µM (active)	0.313 µM (active)	3.99 µM (inactive)	0.329 µM (active)	0.877 µM (active)	0.491 µM (active)	0.265 µM (active)	0.658 µM (active)	0.515 µM (active)	0.594 µM (active)	0.218 µM (active)	3.3 µM (inactive)	1.09 µM (active)	0.126 µM (active)	2.29 µM (inactive)	0.577 µM (active)	0.671 µM (active)	0.308 µM (active)
Clc1cc2ns[s+]c2cc1Cl	59.7 µM (inactive)	28.6 µM (inactive)	27.6 µM (inactive)	9.48 µM (inactive)	> 45.1 µM (inactive)	> 56.5 µM (inactive)	73.8 µM (inactive)	31 µM (inactive)	19.3 µM (inactive)	81.8 µM (inactive)	> 100 µM (inactive)	56.9 µM (inactive)	> 88.3 µM (inactive)	21 µM (inactive)	> 100 µM (inactive)	12.4 µM (inactive)	> 62.7 µM (inactive)	> 44.9 µM (inactive)	58.9 µM (inactive)	29.9 µM (inactive)
COc1ccc(/C=C/C(=N/NC(=O)N/N=C(/C=C/c2ccc(OC)cc2)C(C)(C)CN2CCCCC2)C(C)(C)CN2CCCCC2)cc1	1.74 µM (inactive)	1.58 µM (inactive)	2.07 µM (inactive)	1.37 µM (inactive)	1.62 µM (inactive)	1.8 µM (inactive)	3.03 µM (inactive)	1.69 µM (inactive)	1.5 µM (inactive)	2.8 µM (inactive)	1.92 µM (inactive)	1.86 µM (inactive)	1.65 µM (inactive)	1.37 µM (inactive)	2.22 µM (inactive)	1.75 µM (inactive)	2.96 µM (inactive)	2.01 µM (inactive)	2.7 µM (inactive)	1.71 µM (inactive)
COc1ccc(N2C(=O)[C@@H]3[C@H](C2=O)c2[nH]c4ccccc4c2C2CCC(C(C)(C)C)C[C@@H]23)cc1 (stereo not given in full)	29.5 µM (inactive)	> 47.4 µM (inactive)	18.5 µM (inactive)	22.8 µM (inactive)	30.4 µM (inactive)	18 µM (inactive)	22.4 µM (inactive)	22.4 µM (inactive)	> 100 µM (inactive)	28.4 µM (inactive)	30.4 µM (inactive)	24.2 µM (inactive)	24 µM (inactive)	15.9 µM (inactive)	26 µM (inactive)	24.3 µM (inactive)	> 100 µM (inactive)	28 µM (inactive)	14 µM (inactive)	14.4 µM (inactive)
COc1ccc(C(SCCO)(c2ccccc2)c2ccc(OC)cc2)cc1	5.4 µM (inactive)	17.6 µM (inactive)	10.8 µM (inactive)	16.5 µM (inactive)	11.1 µM (inactive)	19.2 µM (inactive)	18.7 µM (inactive)	24.9 µM (inactive)	21.3 µM (inactive)	13.2 µM (inactive)	16.4 µM (inactive)	11 µM (inactive)	17.9 µM (inactive)	4.58 µM (inactive)	13.9 µM (inactive)	16 µM (inactive)	15.2 µM (inactive)	18.1 µM (inactive)	14.5 µM (inactive)	12.4 µM (inactive)
N#CC[C@@H](O)COc1ccccc1	> 100 µM (inactive)	> 100 µM (inactive)	> 100 µM (inactive)	> 100 µM (inactive)	> 100 µM (inactive)	> 100 µM (inactive)	> 100 µM (inactive)	> 100 µM (inactive)	> 100 µM (inactive)	> 100 µM (inactive)	> 100 µM (inactive)	> 100 µM (inactive)	> 100 µM (inactive)	> 100 µM (inactive)	> 100 µM (inactive)	> 100 µM (inactive)	> 100 µM (inactive)	> 100 µM (inactive)	> 100 µM (inactive)	> 100 µM (inactive)
Cc1nc2ccc(F)cc2c2c1CCO2	79.1 µM (inactive)	92.3 µM (inactive)	> 100 µM (inactive)	> 100 µM (inactive)	> 100 µM (inactive)	> 100 µM (inactive)	> 100 µM (inactive)	80 µM (inactive)	24.5 µM (inactive)	39.7 µM (inactive)	> 100 µM (inactive)	> 100 µM (inactive)	72.8 µM (inactive)	> 100 µM (inactive)	> 100 µM (inactive)	> 100 µM (inactive)	> 100 µM (inactive)	> 100 µM (inactive)	30.3 µM (inactive)	> 100 µM (inactive)
C=C1c2nc3ccccc3n2C=C(c2ccc(OC)cc2)N1c1ccccc1	3.75 µM (inactive)	9.02 µM (inactive)	2.21 µM (inactive)	7.36 µM (inactive)	5.28 µM (inactive)	8.61 µM (inactive)	11.7 µM (inactive)	3.65 µM (inactive)	1.59 µM (inactive)	19 µM (inactive)	3.98 µM (inactive)	5.37 µM (inactive)	5.36 µM (inactive)	4.99 µM (inactive)	31 µM (inactive)	39.7 µM (inactive)	> 78.5 µM (inactive)	32.7 µM (inactive)	24 µM (inactive)	3.95 µM (inactive)
COC(=O)CCC(NC(=S)N/N=C(\C)c1nccs1)C(=O)OC (stereo not given)	52.5 µM (inactive)	49.3 µM (inactive)	26.4 µM (inactive)	52 µM (inactive)	> 100 µM (inactive)	68.4 µM (inactive)	> 100 µM (inactive)	3.23 µM (inactive)	10 µM (inactive)	67.6 µM (inactive)	> 100 µM (inactive)	74.8 µM (inactive)	11.3 µM (inactive)	68.2 µM (inactive)	> 100 µM (inactive)	47.6 µM (inactive)	53 µM (inactive)	> 100 µM (inactive)	> 100 µM (inactive)	> 10 µM (inactive)
COc1ccc(N2C(=O)C(Cl)C2c2cc3cc(Br)ccc3nc2Cl)cc1 (stereo not given)	4.09 µM (inactive)	0.701 µM (active)	3.81 µM (inactive)	0.838 µM (active)	5.12 µM (inactive)	13.4 µM (inactive)	5.98 µM (inactive)	6.59 µM (inactive)	5.98 µM (inactive)	4.67 µM (inactive)	4.94 µM (inactive)	11 µM (inactive)	4.91 µM (inactive)	20.5 µM (inactive)	16.6 µM (inactive)	4.89 µM (inactive)	7.96 µM (inactive)	7.52 µM (inactive)	5.79 µM (inactive)	4.38 µM (inactive)
COc1cc(CN[C@H]2CCc3cc(OC)c(OC)c(OC)c3-c3ccc(SC)c(=O)cc32)cc(OC)c1	0.0319 µM (active)	0.0938 µM (active)	0.0245 µM (active)	0.0465 µM (active)	0.0463 µM (active)	0.0481 µM (active)	0.0286 µM (active)	0.0324 µM (active)	0.0394 µM (active)	0.0828 µM (active)	0.0575 µM (active)	0.0376 µM (active)	0.0325 µM (active)	0.0243 µM (active)	0.0306 µM (active)	0.0439 µM (active)	0.0499 µM (active)	0.0807 µM (active)	0.0367 µM (active)	0.452 µM (active)
CSc1ccc2c(cc1=O)[C@@H](NC(=O)c1cccc([N+](=O)[O-])c1)CCc1cc(O)c(O)c(O)c1-2	92.7 µM (inactive)	> 100 µM (inactive)	12.6 µM (inactive)	17.5 µM (inactive)	34.8 µM (inactive)	66.5 µM (inactive)	33 µM (inactive)	28.1 µM (inactive)	26.1 µM (inactive)	50.9 µM (inactive)	81.3 µM (inactive)	53.6 µM (inactive)	38.9 µM (inactive)	25.1 µM (inactive)	27.7 µM (inactive)	> 100 µM (inactive)	> 100 µM (inactive)	> 100 µM (inactive)	27.3 µM (inactive)	21.6 µM (inactive)
